For this assay, the target named is T1, Squalene synthase (Rattus norvegicus, UniProt Q02769).
T1 sequence (Q02769 whole entry): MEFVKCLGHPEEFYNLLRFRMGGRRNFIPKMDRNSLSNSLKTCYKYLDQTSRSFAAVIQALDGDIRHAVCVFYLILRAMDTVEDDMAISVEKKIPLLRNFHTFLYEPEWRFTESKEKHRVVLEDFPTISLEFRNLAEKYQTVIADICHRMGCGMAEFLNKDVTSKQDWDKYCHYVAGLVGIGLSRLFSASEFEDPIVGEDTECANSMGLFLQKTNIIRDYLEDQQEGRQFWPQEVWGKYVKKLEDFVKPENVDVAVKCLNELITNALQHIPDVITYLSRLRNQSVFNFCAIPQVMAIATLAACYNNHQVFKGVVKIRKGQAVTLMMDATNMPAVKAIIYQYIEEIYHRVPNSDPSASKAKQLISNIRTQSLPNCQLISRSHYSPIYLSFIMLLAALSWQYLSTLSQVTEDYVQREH
The assay is described as follows: In vitro for inhibitory activity against Squalene synthase in rat.

Regarding `C=C(CC[C@]12O[C@H](c3nnn(C)n3)[C@@](O)(C(=O)O)[C@](C(=O)O)(O1)[C@H](O)[C@H]2O)[C@@H](C(C)=O)[C@H](C)Cc1ccccc1`, the IC50 was determined as 156 nM.
The same measure for `C=C(CC[C@]12O[C@H](c3nnn[nH]3)[C@@](O)(C(=O)O)[C@](C(=O)O)(O1)[C@H](O)[C@H]2O)[C@@H](C(C)=O)[C@H](C)Cc1ccccc1`: 25 nM; for `C=C(CC[C@]12O[C@H](c3n[nH]c(=S)n3C)[C@@](O)(C(=O)O)[C@](C(=O)O)(O1)[C@H](O)[C@H]2O)[C@@H](C(C)=O)[C@H](C)Cc1ccccc1`: 1940 nM.
The same measure for `C=C(CC[C@]12O[C@H](c3nnnn3C)[C@@](O)(C(=O)O)[C@](C(=O)O)(O1)[C@H](O)[C@H]2O)[C@@H](C(C)=O)[C@H](C)Cc1ccccc1`: 442 nM; for `C=C(CC[C@]12O[C@H](c3cscn3)[C@@](O)(C(=O)O)[C@](C(=O)O)(O1)[C@H](O)[C@H]2O)[C@@H](C(C)=O)[C@H](C)Cc1ccccc1`: 505 nM; for `C=C(CC[C@]12O[C@H](c3nnnn3C)[C@@](O)(C(=O)O)[C@](C(=O)O)(O1)[C@H](OC(=O)/C=C/[C@@H](C)C[C@@H](C)CC)[C@H]2O)[C@@H](C(C)=O)[C@H](C)Cc1ccccc1`: 57 nM.
The value for `C=C(CC[C@]12O[C@H](c3nnn[nH]3)[C@@](O)(C(=O)O)[C@](C(=O)O)(O1)[C@H](OC(=O)/C=C/[C@@H](C)C[C@@H](C)CC)[C@H]2O)[C@@H](C(C)=O)[C@H](C)Cc1ccccc1` was 4 nM; that for `C=C(CC[C@]12O[C@H](c3nnc(C)[nH]3)[C@@](O)(C(=O)O)[C@](C(=O)O)(O1)[C@H](O)[C@H]2O)[C@@H](C(C)=O)[C@H](C)Cc1ccccc1` was 312 nM.
The compound `C=C(CC[C@]12O[C@H](c3csc(NC)n3)[C@@](O)(C(=O)O)[C@](C(=O)O)(O1)[C@H](O)[C@H]2O)[C@@H](C(C)=O)[C@H](C)Cc1ccccc1` gave an IC50 of 1180 nM.
Regarding `C=C(CC[C@]12O[C@H](c3csc(NC)n3)[C@@](O)(C(=O)O)[C@](C(=O)O)(O1)[C@H](OC(=O)/C=C/[C@@H](C)C[C@@H](C)CC)[C@H]2O)[C@@H](C(C)=O)[C@H](C)Cc1ccccc1`, the IC50 was found to be 146 nM.
The value for `C=C(CC[C@]12O[C@H](c3nnc(NC)o3)[C@@](O)(C(=O)O)[C@](C(=O)O)(O1)[C@H](OC(=O)/C=C/[C@@H](C)C[C@@H](C)CC)[C@H]2O)[C@@H](C(C)=O)[C@H](C)Cc1ccccc1` was 10 nM; that for `C=C(CC[C@]12O[C@H](c3nnn(C)n3)[C@@](O)(C(=O)O)[C@](C(=O)O)(O1)[C@H](OC(=O)/C=C/[C@@H](C)C[C@@H](C)CC)[C@H]2O)[C@@H](C(C)=O)[C@H](C)Cc1ccccc1` was 43 nM.
The value for `C=C(CC[C@]12O[C@H](c3nnc(NC)o3)[C@@](O)(C(=O)O)[C@](C(=O)O)(O1)[C@H](O)[C@H]2O)[C@@H](C(C)=O)[C@H](C)Cc1ccccc1` was 147 nM; that for `C=C(CC[C@]12O[C@H](c3nc(C)no3)[C@@](O)(C(=O)O)[C@](C(=O)O)(O1)[C@H](O)[C@H]2O)[C@@H](C(C)=O)[C@H](C)Cc1ccccc1` was 310 nM.
The value for `C=C(CC[C@]12O[C@H](c3cscn3)[C@@](O)(C(=O)O)[C@](C(=O)O)(O1)[C@H](OC(=O)/C=C/[C@@H](C)C[C@@H](C)CC)[C@H]2O)[C@@H](C(C)=O)[C@H](C)Cc1ccccc1` was 92 nM.
Regarding `C=C(CC[C@]12O[C@H](c3nnc(S)n3C)[C@@](O)(C(=O)O)[C@](C(=O)O)(O1)[C@H](OC(=O)/C=C/[C@@H](C)C[C@@H](C)CC)[C@H]2O)[C@@H](C(C)=O)[C@H](C)Cc1ccccc1`, half-maximal inhibition (IC50) required 172 nM.
The same measure for `C=C(CC[C@]12O[C@H](c3nc(C)no3)[C@@](O)(C(=O)O)[C@](C(=O)O)(O1)[C@H](OC(=O)/C=C/[C@@H](C)C[C@@H](C)CC)[C@H]2O)[C@@H](C(C)=O)[C@H](C)Cc1ccccc1`: 72 nM; for `C=C(CC[C@]12O[C@H](c3csc(C)n3)[C@@](O)(C(=O)O)[C@](C(=O)O)(O1)[C@H](OC(=O)/C=C/[C@@H](C)C[C@@H](C)CC)[C@H]2O)[C@@H](C(C)=O)[C@H](C)Cc1ccccc1`: 357 nM.
The value for `C=C(CC[C@]12O[C@H](C(=O)OC)[C@@](O)(C(=O)O)[C@](C(=O)O)(O1)[C@H](O)[C@H]2O)[C@@H](C(C)=O)[C@H](C)Cc1ccccc1` was 220 nM; that for `C=C(CC[C@]12O[C@H](c3csc(C)n3)[C@@](O)(C(=O)O)[C@](C(=O)O)(O1)[C@H](O)[C@H]2O)[C@@H](C(C)=O)[C@H](C)Cc1ccccc1` was 2880 nM.
The value for `C=C(CC[C@]12O[C@H](c3csc(N)n3)[C@@](O)(C(=O)O)[C@](C(=O)O)(O1)[C@H](OC(=O)/C=C/[C@@H](C)C[C@@H](C)CC)[C@H]2O)[C@@H](C(C)=O)[C@H](C)Cc1ccccc1` was 63 nM; that for `C=C(CC[C@]12O[C@H](C(=O)OC)[C@@](O)(C(=O)O)[C@](C(=O)O)(O1)[C@H](OC(=O)/C=C/[C@@H](C)C[C@@H](C)CC)[C@H]2O)[C@@H](C(C)=O)[C@H](C)Cc1ccccc1` was 7 nM.
`C=C(CC[C@]12O[C@H](c3cnc[nH]3)[C@@](O)(C(=O)O)[C@](C(=O)O)(O1)[C@H](O)[C@H]2O)[C@@H](C(C)=O)[C@H](C)Cc1ccccc1` yielded an IC50 of 785 nM.

Values taken from ChEMBL document CHEMBL1128537, “The squalestatins: synthesis and biological activity of some C3-modified analogues; replacement of a carboxylic acid or methyl ester with an isoelectronic heterocyclic functionality” (J Med Chem, 1995).
